From article PMC4579271, “Inflammatory Signaling by NOD-RIPK2 Is Inhibited by Clinically Relevant Type II Kinase Inhibitors” (Chemistry & Biology, 2015)
Read-outs that look alike come from different tables or passages of the source.

Assays:
[1] = target: human RIPK2 recombinant kinase domain (Homo sapiens, UniProt O43353, R171C); experiment: Fluorescence-based thermal shift assay; settings: for ΔTm at 10 µM: read-out: thermal shift (ΔTm); for thermal shift (ΔTm): RIPK2 2 μM, inhibitor 10 μM
Abl = Abl (Homo sapiens, UniProt P00519); experiment: ADPGlo in vitro kinase assay; format: biochemical; settings: Figure S5A
Abl, sequence (P00519 whole entry, species assumed): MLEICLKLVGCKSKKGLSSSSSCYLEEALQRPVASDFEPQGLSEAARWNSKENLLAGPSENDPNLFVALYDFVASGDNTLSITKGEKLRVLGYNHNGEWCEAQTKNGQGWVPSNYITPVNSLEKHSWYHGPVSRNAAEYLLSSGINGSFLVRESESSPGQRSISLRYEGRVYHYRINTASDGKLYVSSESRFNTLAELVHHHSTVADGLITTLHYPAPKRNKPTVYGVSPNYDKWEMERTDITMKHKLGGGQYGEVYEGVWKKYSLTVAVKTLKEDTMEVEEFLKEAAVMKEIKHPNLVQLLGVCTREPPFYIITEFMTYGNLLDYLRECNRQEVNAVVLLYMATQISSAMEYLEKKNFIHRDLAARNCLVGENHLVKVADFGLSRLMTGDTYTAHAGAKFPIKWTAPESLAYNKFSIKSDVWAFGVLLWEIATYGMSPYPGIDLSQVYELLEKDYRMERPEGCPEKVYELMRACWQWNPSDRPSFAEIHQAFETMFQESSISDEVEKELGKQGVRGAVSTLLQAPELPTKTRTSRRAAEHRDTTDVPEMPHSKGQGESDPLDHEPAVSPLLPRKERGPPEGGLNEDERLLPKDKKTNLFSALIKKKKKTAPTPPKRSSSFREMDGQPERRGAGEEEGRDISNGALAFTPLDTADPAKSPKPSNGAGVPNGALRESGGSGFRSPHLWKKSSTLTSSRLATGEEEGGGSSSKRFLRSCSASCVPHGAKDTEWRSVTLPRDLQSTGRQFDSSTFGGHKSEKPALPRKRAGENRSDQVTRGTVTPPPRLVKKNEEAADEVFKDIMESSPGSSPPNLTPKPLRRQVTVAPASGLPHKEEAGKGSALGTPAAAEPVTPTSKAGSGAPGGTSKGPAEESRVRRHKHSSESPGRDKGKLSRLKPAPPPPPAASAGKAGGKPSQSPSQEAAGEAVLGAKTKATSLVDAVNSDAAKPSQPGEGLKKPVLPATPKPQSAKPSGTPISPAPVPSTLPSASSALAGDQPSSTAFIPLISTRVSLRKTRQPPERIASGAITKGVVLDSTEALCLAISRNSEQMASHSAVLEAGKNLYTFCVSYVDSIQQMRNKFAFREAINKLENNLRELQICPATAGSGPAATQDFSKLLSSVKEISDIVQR
Experimental: (§1) For ADPGlo (Promega) assays, 1 ng of Abl or 10 ng of RIPK2 was diluted in reaction buffer (40 mM Tris-HCl [pH 7.5], 20 mM MgCl2, 0.5 mM DTT, and 0.01% BSA) supplemented with 50 μM ATP and a 10-point dose range of inhibitors. Detailed information is provided in the Supplemental Experimental Procedures.
(§2) 40C centrifuge at 14,000 rpm for 15 min to collect lysates. Protein concentrations were […]
(§3) Equal amounts of proteins were separated using 8-10% SDS-PAGE, followed by overnight incubations with antibodies according to the manuf acturer’s recommendations.
(§4) AD P G l o in vitro kinase assays
(§5) For ADPGlo (Promega) assays, 1 ng Abl or 10 ng of RIPK2 was diluted in reaction buff er (40 mM Tris-HCl pH 7.5, 20 mM MgCl2, 0.5 m M DTT, 0.01% BSA) supplemented with 50 µM ATP and 10-point dose range of inhibitors. Reactions were performed at room temperature for 1 hour. Reactions were performed in 5 µL total volume (5% final concentration of DMSO) and stopped by addition of 5 µL of ADPGlo reagent for 40 min at room temperature. Luminescent signal was generated by addition of 10 µL of kinase detection reagent for 30 minutes at room temperature and determined using Victor3V platereader (Perkin Elmer). Specific signal was calculated by subtracting values in the wells without protein and inhibitor from the values in the test wells. Inhibition, % = ((specif ic signal (DMSO control) - specif ic signal (inhibitor))/ (specif ic signal (DMSO control))) x 100%. Non-linear regression to determine IC50 values was perf ormed using Prism software (GraphPad). qPCR analysis in RAW 264.7 cells
(§6) RAW cells were seeded at 2X105 cells/well in 12 well plates. Af ter 24 hours, cells were treated with inhibitors and stimulated with 10 µg/mL MDP f or 24 hours. Total RNAs were isolated using […]

RIPK2 [2] = target: RIPK2 (Homo sapiens, UniProt O43353); experiment: ADPGlo in vitro kinase assay; format: biochemical; settings: Figure S5A
RIPK2 (Homo sapiens, UniProt O43353), sequence (O43353 18-294 limits assumed): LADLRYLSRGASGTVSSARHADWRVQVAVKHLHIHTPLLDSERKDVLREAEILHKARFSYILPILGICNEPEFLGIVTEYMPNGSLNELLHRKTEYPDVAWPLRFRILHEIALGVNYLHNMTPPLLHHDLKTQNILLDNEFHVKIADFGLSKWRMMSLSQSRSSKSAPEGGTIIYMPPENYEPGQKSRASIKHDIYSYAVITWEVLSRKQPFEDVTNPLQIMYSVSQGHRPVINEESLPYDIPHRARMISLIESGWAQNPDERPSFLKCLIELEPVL
Experimental: as §1, §2, §3, §4, §5, §6

[3] = system: NF-κB activation in HEKBlue cells expressing NOD2; experiment: HEKBlue NF-κB-SEAP reporter activation assay, L18-MDP stimulation; settings: for inhibition of NOD2 (MDP) response in HEKBlue cells: Figure S5B; for EC50: Homo sapiens, HEK-Blue, 8 h, read-out: NFκB activity EC50
RIPK2 [4] = settings: ref Vogt et al., 2011; cited from earlier work
[5] = system: LPS pathway in THP-1 cells; experiment: Flow cytometry of TNF production in THP-1 cells, LPS; format: cell-based, human; settings: 10 μM
Experimental: Figure S7, Related to Figure 7. Inhibition of NOD2 signaling in the human monocytic cell
line THP-1. Representative FACS blots (A) and quantif ication of TNF production (B) in THP-1
cells stimulated with L18-MDP or LPS. In indicated conditions cells were preincubated with
k inase inhibitors for 1 hour before activation of NOD2 and TLR4 receptor for 2.5 hours.
(1 picture or pasted object on this page, not shown here)

[6] = system: RIPK2 ubiquitination in THP-1 cells; experiment: TUBE purification of ubiquitin conjugates, L18-MDP-stimulated THP-1 cells; settings: 100 nM pre-treatment, 200 ng/ml L18-MDP
[7] = system: NOD2-dependent TNF production in primary human monocytes; experiment: Flow cytometry of intracellular TNF in primary human monocytes, L18-MDP; format: cell-based; settings: 200 ng/ml L18-MDP
Experimental: Experimental conditions are measured in 4–5 healthy donors. […] Gray background indicates range without inhibitors. See also Figure S7.

[8] = system: phospho-Ser176-RIPK2 (p-RIPK2) in NOD2-expressing HEK293 cells; experiment: Western blot of phospho-Ser176-RIPK2 in HEKBlue cells after L18-MDP

human RIPK2 recombinant kinase domain, sequence (O43353 8-317 R171C): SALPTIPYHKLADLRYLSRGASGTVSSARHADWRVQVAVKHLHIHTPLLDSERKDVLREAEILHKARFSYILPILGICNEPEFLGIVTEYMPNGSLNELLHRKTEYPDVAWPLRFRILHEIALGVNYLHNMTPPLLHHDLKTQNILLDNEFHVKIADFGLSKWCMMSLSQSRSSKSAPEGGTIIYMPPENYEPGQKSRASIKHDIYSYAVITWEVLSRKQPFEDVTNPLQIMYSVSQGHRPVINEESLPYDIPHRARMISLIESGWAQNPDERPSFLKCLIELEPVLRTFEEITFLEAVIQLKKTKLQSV

CN1CCC(Nc2ncc3ncnc(Nc4ccc(F)c(Cl)c4)c3n2)CC1 [BIBX1382]
ΔTm at 10 µM [1]: 8.7 °C

CN1CCN(Cc2ccc(NC(=O)c3ccc(C(C)(C)C)c(C#Cc4cnc5cccnn45)c3)cc2C(F)(F)F)CC1 [CS6]
inhibition of Abl kinase activity (Abl): loss of inhibition
inhibition of RIPK2 in vitro (RIPK2 [2]): loss of inhibition
inhibition of NOD2 (MDP) response in HEKBlue cells [3]: did not inhibit

Cc1nc(Nc2ncc(C(=O)Nc3c(C)cccc3Cl)s2)cc(N2CCN(CCO)CC2)n1 [Dasatinib]
ΔTm at 10 µM [1]: 9.5 °C

c1cc(-c2cnn3cc(-c4ccc(OCCN5CCCCC5)cc4)cnc23)ccn1 [Dorsomorphin]
ΔTm at 10 µM [1]: 9.6 °C

COC(=O)[C@@]1(O)C[C@H]2O[C@]1(C)n1c3ccccc3c3c4c(c5c6ccccc6n2c5c31)C(=O)NC4 [K252a]
thermal shift (ΔTm) [1]: 10.0 °C

c1ccc2c(-c3cnn4cc(-c5ccc(N6CCNCC6)cc5)cnc34)ccnc2c1 [LDN-193189]
IC50 (RIPK2 [4]): 25 nM
thermal shift (ΔTm) [1]: 12.1 °C

CN[C@@H]1C[C@H]2O[C@@](C)([C@@H]1OC)n1c3ccccc3c3c4c(c5c6ccccc6n2c5c31)C(=O)NC4 [Staurosporine]
ΔTm at 10 µM [1]: 9.1 °C

Cc1cccc(-c2nn(C(=S)Nc3ccccc3)cc2-c2ccnc3ccccc23)n1 [TGFβ inhibitor IV (A-83-01)]
thermal shift (ΔTm) [1]: 8.4 °C

COc1cc2ncnc(Nc3ccc(F)c(Cl)c3)c2cc1OCCCN1CCOCC1 [gefitinib]
LPS pathway TNF production [5]: also inhibited the LPS pathway
L18-MDP-induced RIPK2 ubiquitination [6]: less robust inhibitory effects

Cc1cn(-c2cc(NC(=O)c3ccc(C)c(Nc4nccc(-c5cccnc5)n4)c3)cc(C(F)(F)F)c2)cn1 [nilotinib]
inhibition of RIPK2 in vitro (RIPK2 [2]): did not inhibit
inhibition of NOD2 (MDP) response in HEKBlue cells [3]: did not inhibit

CNC(=O)c1cc(Oc2ccc(NC(=O)Nc3ccc(Cl)c(C(F)(F)F)c3)c(F)c2)ccn1 [regorafenib]
concentration completely abrogating NOD2-dependent TNF production [7]: 100 nM
EC50 [3]: 3.8 nM
inhibition of L18-MDP-induced p-RIPK2 ([8]; 1 μg/ml L18-MDP, 30 min): inhibited by low nanomolar concentrations
L18-MDP-induced RIPK2 ubiquitination [6]: less robust inhibitory effects

CNC(=O)c1cc(Oc2ccc(NC(=O)Nc3ccc(Cl)c(C(F)(F)F)c3)cc2)ccn1 [sorafenib]
EC50 [3]: 16.9 nM
inhibition of L18-MDP-induced p-RIPK2 [8]: inhibited by low nanomolar concentrations
